How the values were obtained:
[1] = system: S. aureus ATCC 29213 and other strains; experiment: Systemic infection model in mice, ED50 by Probit analysis; format: in vivo; settings: Staphylococcus aureus, ATCC29213, Swiss albino mice, survival observed 5 to 7 days, route and regimen not stated per value
Description: Efficacies of the molecules were determined by systemic infection model. In this model, 6-7 weeks old Swiss albino mice (3 Males and 3 Females/group) weighing 21-25 grams were used. S. aureus ATCC 29213 and other strains were cultured on Columbia Blood agar (DIFCO), overnight, at 37° C. for 18 to 24 hours. Inoculum was prepared in 0.9% saline and optical density (OD) was adjusted at 560 nm to get 100×LD50 dose. Inoculum was diluted 1:1 with 10% Hog Gastric Mucin and 0.5 ml of inoculum was injected intraperitonially to each animal. Test compounds were solubilised in suitable formulation and administered by per-oral, subcutaneous or intra venous route by q.d., b.i.d. or t.i.d. protocol. […] ED50 Value (mg/kg) was calculated by Probit analysis.

Row | melting point [°C] | Compound | ED50 [1] [mg/kg]
1 | 170 to 171 | CC(=O)NC[C@H]1CN(c2ccc(-n3cc(Cn4cncn4)nn3)c(F)c2)C(=O)O1 [Example 30] | 8.5
2 | 160 to 162 | CC(=O)NC[C@H]1CN(c2ccc(-c3nc(Cn4cncn4)co3)c(F)c2)C(=O)O1 [Example 4, N-{3-[3-fluoro-4-(4-[1,2,4]-triazol-1-ylmethyl-oxazol-2-yl)-phenyl]-2-oxo-oxazolidin-5(S)-ylmethyl}-acetamide] | 5.38
3 | 204 to 206 | CC(=O)NC[C@H]1CN(c2ccc(-c3nc(Cn4cccn4)co3)c(F)c2)C(=O)O1 [Example 2, N-{3-[3-fluoro-4-(4-pyrazol-1-ylmethyl-oxazol-2-yl)-phenyl]-2-oxo-oxazolidin-5(S)-ylmethyl}-acetamide] | 7.1
4 | – | COC(=O)NC[C@H]1CN(c2ccc(-n3cc(Cn4cccn4)nn3)c(F)c2)C(=O)O1 [Example 46, Methyl N-{3-[3-fluoro-4-(4-pyrazol-1-yl-methyl-(1,2,3)triazol-1-yl)-phenyl]-2-oxo-oxazolidin-5-ylmethyl}carbamate] | 2.53

Row | Compound | melting point [°C] | ED50 [1] [mg/kg]
5 | COC(=O)NC[C@H]1CN(c2ccc(-n3cnc(Cn4cccn4)c3)c(F)c2)C(=O)O1 [Example 44, Methyl {3-[3-fluoro-4-(4-pyrazol-1-ylmethyl-imidazol-1-yl)-phenyl]-2-oxo-oxazolidin-5-ylmethyl}-carbamate] | 130 | 5.02

From patent publication US20100298384A1, “NOVEL OXAZOLIDINONE COMPOUNDS AS ANTIINFECTIVE AGENTS” (priority 2006, published 2010)
